Reference: US7598258B2, “Quinoline derivatives and quinazoline derivatives inhibiting autophosphorylation of macrophage colony stimulating factor receptor” (Kirin Beer Kabushiki Kaisha, priority 2002, dated 2009)

Target: T1, mouse c-fms (Mus musculus, UniProt P09581)
T1 construct: Macrophage-like cell line BAC-1.2F5 which expresses c-fms as a M-CSF receptor on cell membranes; endogenous in cells; host or cells: BAC-1.2F5 mouse macrophage-like cell line
T1 sequence (P09581 20-977): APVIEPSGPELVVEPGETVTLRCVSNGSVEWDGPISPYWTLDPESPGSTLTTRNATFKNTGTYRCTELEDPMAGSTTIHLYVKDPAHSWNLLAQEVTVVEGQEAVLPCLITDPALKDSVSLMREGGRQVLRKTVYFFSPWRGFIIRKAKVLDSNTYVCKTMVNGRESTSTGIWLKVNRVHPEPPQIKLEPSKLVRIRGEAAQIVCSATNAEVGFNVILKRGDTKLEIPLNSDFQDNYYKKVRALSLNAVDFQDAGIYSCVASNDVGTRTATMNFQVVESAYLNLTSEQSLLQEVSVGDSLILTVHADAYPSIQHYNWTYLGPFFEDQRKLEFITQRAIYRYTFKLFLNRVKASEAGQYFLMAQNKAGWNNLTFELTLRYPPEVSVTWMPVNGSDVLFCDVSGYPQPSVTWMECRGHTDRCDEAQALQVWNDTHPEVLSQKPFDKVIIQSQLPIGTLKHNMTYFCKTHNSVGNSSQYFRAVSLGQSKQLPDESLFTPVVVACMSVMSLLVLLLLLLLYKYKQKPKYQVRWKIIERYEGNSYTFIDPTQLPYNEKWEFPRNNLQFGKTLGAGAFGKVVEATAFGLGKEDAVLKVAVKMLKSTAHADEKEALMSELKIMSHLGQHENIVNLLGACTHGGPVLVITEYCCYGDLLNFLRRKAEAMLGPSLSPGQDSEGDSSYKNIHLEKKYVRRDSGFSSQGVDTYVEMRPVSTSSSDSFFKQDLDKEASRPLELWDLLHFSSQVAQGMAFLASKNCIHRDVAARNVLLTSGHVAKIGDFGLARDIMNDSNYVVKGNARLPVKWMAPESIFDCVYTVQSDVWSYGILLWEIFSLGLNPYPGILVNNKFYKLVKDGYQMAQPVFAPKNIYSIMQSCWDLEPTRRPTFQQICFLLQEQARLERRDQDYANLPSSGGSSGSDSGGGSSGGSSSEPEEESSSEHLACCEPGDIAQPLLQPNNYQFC
Assay: Inhibition of c-fms autophosphorylation in macrophage-like cell line BAC-1.2F5 by M-CSF stimulation (ELISA)
Format: cell-based
Conditions: BAC-1.2F5 cells, human recombinant M-CSF 50 ng/ml, read-out: c-fms autophosphorylation 50% inhibitory concentration (IC50)
Procedure, shortened: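 BAC-1.2F5 cells serum-starved (0.1% FCS) 12 h, preincubated with compound 1 h at 37° C, then stimulated 6 min with 50 ng/ml human recombinant M-CSF. Lysates captured on anti-phosphotyrosine plates, detected with anti-c-fms antiserum and peroxidase read-out at 450 nm. IC50 from inhibition normalised between ±M-CSF controls.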

Going from `COc1cc2nccc(Oc3ccc(NC(=O)N[C@H](C)c4cccc(Br)c4)c(F)c3)c2cc1OC` [Example 63, N-[(1R)-1-(3-Bromophenyl)ethyl]-N′-{4-[(6,7-dimethoxy-4-quinolyl)oxy]-2-fluorophenyl}urea] to `COc1cc2nccc(Oc3ccc(NC(=O)NC(C)c4nccs4)c(F)c3)c2cc1OC` (centres unmarked) [Example 70, N-{4-[(6,7-Dimethoxy-4-quinolyl)oxy]-2-fluorophenyl}-N′-[1-(1,3-thiazol-2-yl)ethyl]urea], the IC50 falls from 30.9 nM to 3.6 nM (8.6-fold). The second is the more potent here.

`COc1cc2c(Oc3ccc(NC(=O)NC(C)c4ccc(F)cc4)cc3F)ccnc2cc1OCCCN1CCOCC1` (centres unmarked) [Example 64, N-(3-Fluoro-4-{[6-methoxy-7-(3-morpholinopropoxy)-4-quinolyl]oxy}phenyl)-N′-[1-(4-fluorophenyl)ethyl]urea] and `COc1cc2c(Oc3ccc(NC(=O)NC(C)c4ccc(F)c(F)c4)cc3F)ccnc2cc1OCCCN1CCOCC1` (centres unmarked) [Example 65, N-[1-(3,4-Difluorophenyl)ethyl]-N′-(3-fluoro-4-{[6-methoxy-7-(3-morpholinopropoxy)-4-quinolyl]oxy}phenyl)urea] are within 1.5-fold of each other in IC50: 9.4 nM for the first, 13.9 nM for the second.

`COc1cc2c(Oc3ccc(NC(=O)NC(C)c4ccc(F)cc4F)cc3F)ccnc2cc1OCCCN1CCOCC1` (centres unmarked) [Example 66, N-[1-(2,4-Difluorophenyl)ethyl]-N′-(3-fluoro-4-{[6-methoxy-7-(3-morpholinopropoxy)-4-quinolyl]oxy}phenyl)urea] and `COc1cc2c(Oc3ccc(NC(=O)NC(C)c4ccc(F)cc4F)c(F)c3)ccnc2cc1OCCCN1CCOCC1` (centres unmarked) [Example 69, N-[1-(2,4-Difluorophenyl)ethyl]-N′-(2-fluoro-4-{[6-methoxy-7-(3-morpholinopropoxy)-4-quinolyl]oxy}phenyl)urea] are within 1.5-fold of each other in IC50: 14.7 nM for the first, 11.5 nM for the second.

First: COc1cc2c(Oc3ccc(NC(=O)NC(C)c4ccc(F)cc4)c(F)c3)ccnc2cc1OCCCN1CCOCC1 (centres unmarked) [Example 67, N-(2-Fluoro-4-{[6-methoxy-7-(3-morpholinopropoxy)-4-quinolyl]oxy}phenyl)-N′-[1-(4-fluorophenyl)ethyl]urea]
Second: COc1cc2c(Oc3ccc(NC(=O)NC(C)c4ccc(F)c(F)c4)c(F)c3)ccnc2cc1OCCCN1CCOCC1 (centres unmarked) [Example 68, N-[1-(3,4-Difluorophenyl)ethyl]-N′-(2-fluoro-4-{[6-methoxy-7-(3-morpholinopropoxy)-4-quinolyl]oxy}phenyl)urea]
The IC50 of the first is 1.7-fold lower: 5.7 nM for the first, 9.8 nM for the second.

First: COc1cc2nccc(Oc3ccc(NC(=O)N[C@@H](C)c4nccs4)c(F)c3)c2cc1OC [Example 71, N-{4-[(6,7-Dimethoxy-4-quinolyl)oxy]-2-fluorophenyl}-N′-[(1S)-1-(1,3-thiazol-2-yl)ethyl]urea]
Second: COc1cc2nccc(Oc3ccc(NC(=O)N[C@H](C)c4nccs4)c(F)c3)c2cc1OC [Example 72, N-{4-[(6,7-Dimethoxy-4-quinolyl)oxy]-2-fluorophenyl}-N′-[(1R)-1-(1,3-thiazol-2-yl)ethyl]urea]
The IC50 of the first is 1.6-fold lower: 3 nM for the first, 4.9 nM for the second.

First: COc1cc2nccc(Oc3ccc(NC(=O)NC(C)c4nccs4)cc3F)c2cc1OC (centres unmarked) [Example 73, N-{4-[(6,7-Dimethoxy-4-quinolyl)oxy]-3-fluorophenyl}-N′-[1-(1,3-thiazol-2-yl)ethyl]urea]
Second: COc1cc2nccc(Oc3ccc(NC(=O)NC(C)c4nccs4)cc3OC)c2cc1OC (centres unmarked) [Example 80, N-{4-[(6,7-Dimethoxy-4-quinolyl)oxy]-3-methoxyphenyl}-N′-[1-(1,3-thiazol-2-yl)ethyl]urea]
The IC50 of the first is 2.1-fold lower: 3 nM for the first, 6.2 nM for the second.

`COc1cc(Oc2ccnc3cc(OC)c(OC)cc23)ccc1NC(=O)NC(C)c1nccs1` (centres unmarked) [Example 74, N-{4-[(6,7-Dimethoxy-4-quinolyl)oxy]-2-methoxyphenyl}-N′-[1-(1,3-thiazol-2-yl)ethyl]urea] and `COc1cc(Oc2ccnc3cc(OC)c(OC)cc23)ccc1NC(=O)NC(C)c1nc(C)cs1` (centres unmarked) [Example 90, N-{4-[(6,7-Dimethoxy-4-quinolyl)oxy]-2-methoxyphenyl}-N′-[1-(4-methyl-1,3-thiazol-2-yl)ethyl]urea] are within 1.5-fold of each other in IC50: 5 nM for the first, 3.6 nM for the second.

Compared with `COc1cc2nccc(Oc3ccc(NC(=O)NC(C)c4nccs4)cc3)c2cc1OC` (centres unmarked) [Example 77, N-{4-[(6,7-Dimethoxy-4-quinolyl)oxy]phenyl}-N′-[1-(1,3-thiazol-2-yl)ethyl]urea], `COc1cc2nccc(Oc3ccc(NC(=O)N[C@@H](C)c4nccs4)cc3)c2cc1OC` [Example 78, N-{4-[(6,7-Dimethoxy-4-quinolyl)oxy]phenyl}-N′-[(S)-1-(1,3-thiazol-2-yl)ethyl]urea] is 1.6-fold lower in IC50: 4.7 nM for the first, 2.9 nM for the second. The second is the more potent here.

`COc1cc2nccc(Oc3ccc(NC(=O)N[C@H](C)c4nccs4)cc3)c2cc1OC` [Example 79, N-{4-[(6,7-Dimethoxy-4-quinolyl)oxy]phenyl}-N′-[(1R)-1-(1,3-thiazol-2-yl)ethyl]urea] and `COc1cc2nccc(Oc3ccc(NC(=O)N[C@@H](C)c4nccs4)cc3OC)c2cc1OC` [Example 81, N-{4-[(6,7-Dimethoxy-4-quinolyl)oxy]-3-methoxyphenyl}-N′-[(1S)-1-(1,3-thiazol-2-yl)ethyl]urea] are within 1.5-fold of each other in IC50: 6.9 nM for the first, 6.2 nM for the second.

`COc1cc2nccc(Oc3ccc(NC(=O)N[C@H](C)c4nccs4)cc3OC)c2cc1OC` [Example 82, N-{4-[(6,7-Dimethoxy-4-quinolyl)oxy]-3-methoxyphenyl}-N′-[(1R)-1-(1,3-thiazol-2-yl)ethyl]urea] and `COc1cc2nccc(Oc3cc(C)c(NC(=O)N[C@@H](C)c4nccs4)cc3C)c2cc1OC` [Example 86, N-{4-[(6,7-Dimethoxy-4-quinolyl)oxy]-2,5-dimethylphenyl}-N′-[(1S)-1-(1,3-thiazol-2-yl)ethyl]urea] are within 1.5-fold of each other in IC50: 8.9 nM for the first, 12.5 nM for the second.

`COc1cc2nccc(Oc3ccc(NC(=O)NC(C)c4nccs4)c(C(F)(F)F)c3)c2cc1OC` (centres unmarked) [Example 83, N-[4-[(6,7-Dimethoxy-4-quinolyl)oxy]-2-(trifluoromethyl)phenyl]-N′-[1-(1,3-thiazol-2-yl)ethyl]urea] and `COc1cc2nccc(Oc3ccc(NC(=O)N[C@@H](C)c4nccs4)c(C(F)(F)F)c3)c2cc1OC` [Example 84, N-[4-[(6,7-Dimethoxy-4-quinolyl)oxy]-2-(trifluoromethyl)phenyl]-N′-[(1S)-1-(1,3-thiazol-2-yl)ethyl]urea] are the same in IC50: 10.2 nM for the first, 10.2 nM for the second.

Compared with `COc1cc2nccc(Oc3ccc(NC(=O)N[C@H](C)c4nccs4)c(C(F)(F)F)c3)c2cc1OC` [Example 85, N-[4-[(6,7-Dimethoxy-4-quinolyl)oxy]-2-(trifluoromethyl)phenyl]-N′-[(1R)-1-(1,3-thiazol-2-yl)ethyl]urea], `COc1cc2nccc(Oc3cc(C)c(NC(=O)N[C@H](C)c4nccs4)cc3C)c2cc1OC` [Example 87, N-{4-[(6,7-Dimethoxy-4-quinolyl)oxy]-2,5-dimethylphenyl}-N′-[(1R)-1-(1,3-thiazol-2-yl)ethyl]urea] is 1.5-fold higher in IC50: 17.4 nM for the first, 26.5 nM for the second.

`COc1cc2nccc(Oc3ccc(NC(=O)NC(C)c4nc(C)cs4)c(F)c3)c2cc1OC` (centres unmarked) [Example 88, N-{4-[(6,7-Dimethoxy-4-quinolyl)oxy]-2-fluorophenyl}-N′-[1-(4-methyl-1,3-thiazol-2-yl)ethyl]urea] and `COc1cc2nccc(Oc3ccc(NC(=O)NC(C)c4nc(C)cs4)cc3F)c2cc1OC` (centres unmarked) [Example 89, N-{4-[(6,7-Dimethoxy-4-quinolyl)oxy]-3-fluorophenyl}-N′-[1-(4-methyl-1,3-thiazol-2-yl)ethyl]urea] are within 1.5-fold of each other in IC50: 2.9 nM for the first, 3.1 nM for the second.
